# Experimental data as given in patent US20240041959A1, “NOVEL MODIFIED REOVIRUS AND USE THEREOF” (priority 2020, published 2024).
# How the values were obtained:
# [1] = tested on: normal cell line HS27; assay: WST cell viability in normal cell line (Example 3); format: cell-based, human; details: HS27, 3 days, FIG. 1A
# Procedure: (§1) The cell lines used in this example are as follows: normal cell line HS27, and paclitaxel-resistant cancer cell lines Skmel28, A375, and B16F10. Each cell line was cultured in DMEM medium containing 10% fetal bovine serum and seeded at a density of 3,000 cells/well in a 96-well plate, followed by incubation at 37° C. and 5% CO2 for 24 hours. RP116 was serially diluted at concentrations ranging from 0.008 to 1,000 MOI (Multiplicity of Infection) and treated to the prepared cells, and further incubated for three days at 37° C. and 5% CO2. The number of surviving cells was measured using a WST kit (DoGen, Seoul, South Korea, Cat No: EZ-3000) according to the manufacturer's instructions.
# [2] = tested on: paclitaxel-resistant cancer cell lines Skmel28, A375, and B16F10; assay: WST cell viability in paclitaxel-resistant cancer cell lines (Example 3); format: cell-based; details: even at high concentrations of 100 nM or more, FIG. 1B
# Procedure: as §1, with “RP116 was serially diluted at concentrations ranging from 0.008 to 1,000 MOI (Multiplicity of Infection) and treated to the prepared cells, and further incubated for three days at 37° C. and 5% CO2.” left out
structure (smiles),measurement,setting,value
CC(=O)O[C@H]1C(=O)[C@@]2(C)[C@H]([C@H](OC(=O)c3ccccc3)[C@]3(O)C[C@H](OC(=O)[C@H](O)[C@@H](NC(=O)c4ccccc4)c4ccccc4)C(C)=C1C3(C)C)[C@]1(OC(C)=O)CO[C@@H]1C[C@@H]2O [paclitaxel],cell viability of normal cell line vs control group,[1],cell viability decreased in a concentration-dependent manner
same,cell viability of paclitaxel-resistant cancer cells vs control group,[2],no significant difference in cell viability compared to the control group
